{"source": "patent US5665760A", "about": "“Lyophilized thioxanthenone antitumor agents” (priority 1995, dated 1997)", "tested_on": "pancreatic ductal adenocarcinoma #03", "assay": "antitumor activity in mice against pancreatic ductal adenocarcinoma #03 (Panc 03)", "assay_type": "in vivo", "experimental": "Representative examples of the invention were tested for antitumor activity in mice according to the following procedure:\nThe animals were pooled, implanted subcutaneously with 30 to 60 mg tumor fragments by 12-gauge trocar, and again pooled before unselective distribution to the various treatment and control groups. For early-stage treatment, chemotherapy was started within 1 to 5 days after tumor implantation while the number of cells was relatively small (10^7 to 10^8 cells). For advanced-stage treatment, chemotherapy was delayed until the tumor became relatively large (200 to 300 mg in size). A 300-mg tumor contains approximately 3×10^8 total cells. […] Tumors were measured with a caliper weekly (or twice weekly for the more rapidly growing tumors). Mice were sacrificed when their tumors reached 1500 mg (i.e., before they can cause the animal discomfort). Tumor weights were estimated from two-dimensional measurements.\nThe treatment and control groups were measured when the control group tumors reached approximately 700 to 1200 mg in size (Median of Group). The median tumor weight of each group was determined (including zeros). […] A T/C value <10% is considered to indicate highly significant antitumor activity.\nThe results are shown in Table I for pancreatic ductal adenocarcinoma #03 and in Table 2 for colon adenocarcinoma #38.", "key": {"[1]": {"details": "Table 1, average body weight 25 g, total doses as in E1"}}, "note": "Where a name gives a salt, the structure may show the parent alone."}
{"smiles": "CNCc1ccc(NCCN(C)C)c2c(=O)c3ccccc3sc12", "note": "[20(b), 1-[[2-(Dimethylamino)ethyl]amino]-4-[(methylamino)-methyl]thioxanthen-9-onedihydrochloride-5/4 hydrate]", "values": [{"measurement": "T/C", "value": 10, "unit": "%"}, {"measurement": "Drug Deaths", "setting": "Table 1, total doses as in E1", "value": 0}, {"measurement": "Weight Loss", "setting": "mouse, in vivo", "value": 0.4, "unit": "g"}]}
{"smiles": "CCN(CC)CCNc1ccc(CN(C)S(C)(=O)=O)c2sc3ccccc3c(=O)c12", "note": "[Example 8, N-[[1-[[2-(Diethylamino)ethyl)amino]-9-oxothioxanthen-yl]methyl]N-methylmethanesulfonamide]", "values": [{"measurement": "T/C", "value": 0, "unit": "%"}, {"measurement": "Drug Deaths", "setting": "Table 1, total doses as in E1", "value": 0}, {"measurement": "Weight Loss", "setting": "mouse, in vivo", "value": 0.8, "unit": "g"}]}
{"smiles": "CCN(CC)CCNc1ccc(C=Nc2ccccc2)c2sc3ccccc3c(=O)c12", "note": "[Example 1, 1-[[2-(Diethylamino)ethyl]amino]-4-(N-phenylformimidoyl)thioxanthen-9-one]", "values": [{"measurement": "T/C", "value": 0, "unit": "%"}, {"measurement": "Weight Loss", "setting": "[1]", "value": 1.6, "unit": "g"}, {"measurement": "Drug Deaths", "setting": "Table 1, total doses as in E1", "value": 0}]}
{"smiles": "CCN(CC)CCNc1ccc(CN(C)S(=O)(=O)c2ccccc2)c2sc3ccccc3c(=O)c12.CS(=O)(=O)O", "note": "[Example 29, N-[[1-[[2-(Diethylamino)ethyl]amino]-9-oxothioxanthen-4-yl]methyl]-N-methyl-benzenesulfonamide methanesulfonate]", "values": [{"measurement": "T/C", "value": 6, "unit": "%"}, {"measurement": "Weight Loss", "setting": "[1]", "value": 2.4, "unit": "g"}, {"measurement": "Drug Deaths", "setting": "Table 1, total doses as in E1", "value": 0}]}
{"smiles": "CNCc1ccc(NCCCN(C)C)c2c(=O)c3ccccc3sc12", "note": "[19(e), 1-[[3-(Dimethylamino)propyl]amino]-4-[(methylaminomethyl]thioxanthen-9-one dihydrochloride monohydrate]", "values": [{"measurement": "T/C", "value": 4, "unit": "%"}, {"measurement": "Drug Deaths", "setting": "Table 1, total doses as in E1", "value": 0}, {"measurement": "Weight Loss", "setting": "mouse, in vivo", "value": 3.4, "unit": "g"}]}
{"smiles": "CCNCc1ccc(NCCN(CC)CC)c2c(=O)c3ccccc3sc12", "note": "[Example 14, 1-[[2-(Diethylamino)ethyl]amino]-4-[(ethylamino)-methyl]thioxanthen-9-one]", "values": [{"measurement": "T/C", "value": 0, "unit": "%"}, {"measurement": "Weight Loss", "setting": "[1]", "value": 1.2, "unit": "g"}, {"measurement": "Drug Deaths", "setting": "Table 1, total doses as in E1", "value": 0}]}
{"smiles": "CCN(CC)CCNc1ccc(CNS(=O)(=O)c2ccc(OC)cc2)c2sc3ccccc3c(=O)c12.CS(=O)(=O)O", "note": "[Example 23, N-[[1-[[2-(Diethylamino)ethyl]amino]-9-oxothioxanthen-4-yl]methyl](p-methoxy)benzenesulfonamide methanesulfonate]", "values": [{"measurement": "T/C", "value": 20, "unit": "%"}, {"measurement": "Weight Loss", "setting": "[1]", "value": 2.4, "unit": "g"}, {"measurement": "Drug Deaths", "setting": "Table 1, total doses as in E1", "value": 0}]}
{"smiles": "CCN(CC)CCNc1ccc(CNS(=O)(=O)c2ccccc2F)c2sc3ccccc3c(=O)c12", "note": "[Example 27, N-[[1-[[2-(Diethylamino)ethyl]amino]-9-oxothioxanthen-4-yl]methyl]-2-fluorobenzenesulfonamide]", "values": [{"measurement": "T/C", "value": 5, "unit": "%"}, {"measurement": "Weight Loss", "setting": "[1]", "value": "+0.8 g"}, {"measurement": "Drug Deaths", "setting": "Table 1, total doses as in E1", "value": 0}]}
{"smiles": "CCN(CC)CCNc1ccc(CN(C)S(=O)(=O)CC)c2sc3ccccc3c(=O)c12.CS(=O)(=O)O", "note": "[Example 22, N-[[1-[[2-(Diethylamino)ethyl]amino]-9-oxothioxanthen-4-yl]methyl]-N-methyl-ethanesulfonamide methanesulfonate]", "values": [{"measurement": "T/C", "value": 0, "unit": "%"}, {"measurement": "Weight Loss", "setting": "[1]", "value": 3.2, "unit": "g"}, {"measurement": "Drug Deaths", "setting": "Table 1, total doses as in E1", "value": 0}]}
{"smiles": "CCN(CC)CCNc1ccc(CNS(=O)(=O)CC)c2sc3ccccc3c(=O)c12.CS(=O)(=O)O", "note": "[Example 24, N-[[1-[[2-(Diethylamino)ethyl]amino]-9-oxothioxanthen-4-yl]methyl]ethanesulfonamide methanesulfonate]", "values": [{"measurement": "T/C", "value": 0, "unit": "%"}, {"measurement": "Weight Loss", "setting": "[1]", "value": 2.3, "unit": "g"}, {"measurement": "Drug Deaths", "setting": "Table 1, total doses as in E1", "value": 0}]}
{"smiles": "CCN(CC)CCNc1ccc(CNS(=O)(=O)c2ccccc2)c2sc3ccccc3c(=O)c12", "note": "[Example 9, N-[[1-[[2-(Diethylamino)ethyl]amino]-9-oxothioxanthen-4-yl]methyl]phenylsulfonamide]", "values": [{"measurement": "T/C", "value": 8, "unit": "%"}, {"measurement": "Weight Loss", "setting": "[1]", "value": 1.6, "unit": "g"}, {"measurement": "Drug Deaths", "setting": "Table 1, total doses as in E1", "value": 0}]}
{"smiles": "CCOP(=O)(NCc1ccc(NCCN(CC)CC)c2c(=O)c3ccccc3sc12)OCC", "note": "[Example 12]", "values": [{"measurement": "Weight Loss", "setting": "[1]", "value": 3.2, "unit": "g"}, {"measurement": "Drug Deaths", "setting": "Table 1, total doses as in E1", "value": 0}]}
{"smiles": "CCN(CC)CCCNc1ccc(CNC)c2sc3ccccc3c(=O)c12", "note": "[17(f), 1-[[3-(Diethylamino)propyl]amino]-4-(methylaminomethyl)thioxanthen-9-one dihydrochloride 3/2 hydrate]", "values": [{"measurement": "T/C", "value": 17, "unit": "%"}, {"measurement": "Drug Deaths", "setting": "Table 1, total doses as in E1", "value": 0}, {"measurement": "Weight Loss", "setting": "mouse, in vivo", "value": 2.0, "unit": "g"}]}
